# Laboratory results as given in patent US20250290065A1, “METHODS FOR MODULATING HUMAN L1 RETROTRANSPOSONS RNA AND COMPOSITIONS FOR USE THEREIN” (King Abdullah University of Science and Technology, priority 2019, published 2025).
# “Also recorded” adds a separate entry of the source.
# Tests used:
# L1 promoter = settings: Terasaki, et al., PLoS One 2013; cited from earlier work
# [1] = system: Line 1 retrotransposition; settings: Nishikawa et al. 2018; Banuelos-Sanchez et al. 2019; cited from earlier work
# [2] = system: OP patients derived MSC differentiating to osteoblasts; assay: L1 RNA transfection of MSC from osteoporotic patients, bone matrix quantification; format: cell-based, human
# Procedure: (§1) Cells were washed in PBS and fixed with 4% Paraformaldehyde for 15 minutes. Mineralization was assessed by using the OsteoImage Mineralization Assay (#LOPA503, Lonza) according to manufacturer's indication. Mineralization was quantitatively assayed with GloMax discover plate reader (Promega) with appropriate excitation (492)/emission (520) wavelengths.
# [3] = system: BAX, IFNa2, IFNb1, IFI44 expression in MSC
# Procedure: L1 RNA was transfected in differentiating osteoblasts at day 7 using Lipofectamine™ MessengerMAX™ (Invitrogen, USA, Cat. No. LMRNA003) with a modified protocol were a lower RNA amount (10 times less) than recommended was transfected. RFP mRNA (System Bioscience, USA, Cat. No. MR800A-1) was used as negative control.
# Real time quantitative polymerase chain reaction (qPCR) was performed with 7900HT Fast Real Time PCR system (Applied Biosystems). Each sample was analyzed in triplicate and normalized with the endogenous control, Ribosomal Protein L13A (RPL13A) for osteogenesis and Tata Binding Protein (TBP) for adipogenesis, for cDNA input concentration. No template and no RT were included as negative controls. For each 15 μl reaction, 10 ng (1 ng for L1) of cDNA was mixed with 1 μM specific primers mix and 7.5 μl of Sybr Select Master mix (#4472908, Life Technologies). The reaction was incubated at 95° C. for 10 minutes, followed by 40 cycles of denaturation at 95° C. for 15 seconds, annealing at 60° C. for 30 seconds and elongation at 72° C. for 30 seconds. Ct values were calculated by 7900HT Fast Real Time PCR RQ manager software (Applied Biosystems) and then normalized as DCt between the gene of interest and the endogenous calibrator. […] In all primer pairs each primer matches a different exon. Amplicons length was 80-130 nucleotides.
# [4] = system: differentiating osteoblasts; assay: Mineralization assay (OsteoImage) in differentiating osteoblasts; format: cell-based, human; settings: 150 μM, after 21 days of differentiation, vs DMSO
# Procedure: Bone marrow-derived MSC (#C-12974, PromoCell GmbH, Heidelberg, Germany) were grown in 0.1% gelatin solution (#07903, StemCell)-coated plates until passage 4. Growth medium (#PT-3001, Lonza) was changed every 3 days. Osteogenic differentiation was induced by replacing growth medium with Osteogenic Differentiation Medium (#PT-3002, Lonza) on 70% confluent cells seeded on 1:50 Matrigel (#356237, Corning)-coated plates. Adipogenic differentiation was induced by three cycles of induction/maintenance Adipogenic Differentiation Medium (#PT-3004, Lonza) on post-confluent cells seeded on 1:50 MatMatrigel (#356237, Corning)-coated plates.
# as §1
# [5] = system: human mesenchymal stem cells; assay: Cell cycle analysis (Propidium Iodide, FACS); format: cell-based; settings: 3TC vs DMSO; data not shown
# Procedure: 2×105 MSCs were trypsinized for 5 min at 37° C., washed with PBS and 2% BSA, passed through a […] strainer (#352350, Corning) and then fixed at −20° C. for 30 min in 70% ethanol. After washing with PBS and 4% BSA, cells were resuspended in PBS and incubated 1 hour at 37° C. with RNAse. Cells were then washed and resuspended in 100 μl of Flow Cytometry Staining Buffer (R&D System, #FC001). 10 μl of 1 mg/ml Propidium iodide (PI) staining solution (#P3566) was added to the single cell solution, gently mixed, and incubated 5 min in the dark. Cell cycle analysis was performed on BD FACSCanto II Flow Cytometry System, using BD FACSDiva Software.
Compound,L1 promoter activity (L1 promoter),further results
c1ccc2c(c1)cc1ccc3cccc4ccc2c1c34 [benzo[a]pyrene],induce L1 promoter activity,
NC(=O)c1ccccc1O [salicylamide],induce L1 promoter activity,
CC[C@]1(O)C[C@@H]2CN(CCc3c([nH]c4ccccc34)[C@@](C(=O)OC)(c3cc4c(cc3OC)N(C)[C@H]3[C@@](O)(C(=O)OC)[C@H](OC(C)=O)[C@]5(CC)C=CCN6CC[C@]43[C@@H]65)C2)C1 [vinblastine],induce L1 promoter activity,
Nc1nc(=O)n([C@@H]2CS[C@H](CO)O2)cc1F [emtricitabine],,Line 1 retrotransposition [1]: inhibit Line 1 retrotansposition
"L1 RNA: Cy5-conjugated synthetic full-length human L1 mRNA, in vitro transcribed, capped, 5-methyl-C, Pseudo-U substituted, polyadenylated (TriLink)",,"osteoblasts maturation ([2]; in vitro differentiating MSC, all patients tested): greatly enhanced osteoblasts maturation; bone matrix production / mineralized matrix ([2]; transfection at day 7 of osteogenesis, three days after transfection, 4 OP patients, vs random RNA): restored bone matrix production; also recorded: fully rescued the production of mineralized matrix; induction of apoptosis and Interferon response genes [3]: neither apoptosis nor Interferon response genes were induced"
O=C(O)c1cc(-c2ccc(F)cc2F)ccc1O [diflunisal],induce L1 promoter activity,
COc1cc(CNC(=O)CCCC/C=C/C(C)C)ccc1O [Capsaicin],,Line 1 retrotransposition [1]: inhibit Line 1 retrotansposition
O=C(O)c1ccccc1Nc1cccc(C(F)(F)F)c1 [flufenamic acid],induce L1 promoter activity,
"Nc1ccn([C@@H]2CS[C@H](CO)O2)c(=O)n1 [Lamivudine 3TC, Lamivudine]",,mineral deposition (mineralization) [4]: −69%; mineral deposition (mineralization) ([4]; listed as 3TC): −60%; cell cycle analysis and apoptotic cell number in sub-G1 peak [5]: no significant differences
CC[C@@]1(O)C(=O)OCc2c1cc1n(c2=O)Cc2cc3ccccc3nc2-1 [camptothecin],induce L1 promoter activity,
C=C1[C@@H](C)[C@H]2[C@H](Cc3ccccc3)NC(=O)[C@]23[C@H](OC(C)=O)/C=C/[C@@](C)(O)C(=O)[C@@H](C)C/C=C/[C@H]3[C@@H]1O [cytochalasin D],induce L1 promoter activity,
O=C1NC(=S)NC(=O)C1C(=O)Nc1ccccc1 [merbarone],induce L1 promoter activity,
CC1=C(CC(=O)O)c2cc(F)ccc2/C1=C\c1ccc([S+](C)[O-])cc1 (centres unmarked) [sulindac],induce L1 promoter activity,
